Experiments:
KAI1 promoter = KAI1 promoter luciferase reporter assay in transfected Caco2 cells; type: cell-based, human; conditions: 1 μM compound, 16 hours, transfected Caco2 cells, luciferase activity relative to DMSO control (=1); for fold induction at 1 µM: Homo sapiens, Caco-2, 16 h, read-out: Relative KAI promoter activity
[1] = system: invasion of colorectal cancer cells; experiment: In vivo relative invation (invasion; EV and KITENIN controls, no method described); conditions: relative to EV (=1); KIT = KITENIN

C/C=C/C(=O)N1CCC(Oc2ccccc2C(=O)NCC(=O)c2ccccc2)CC1 [Example 158, (E)-2-((1-(but-2-enoyl)piperidin-4-yl)oxy)-N-(2-oxo-2-phenylethyl)benzamide]
fold induction at 1 µM (KAI1 promoter): 1
In vivo relative invation [1]: 1.171

O=C(CNC(=O)c1ccccc1OC1CCN(C(=O)CCc2ccccc2)CC1)c1ccccc1 [Example 159, N-(2-oxo-2-phenylethyl)-2-((1-(3-phenylpropanoyl)piperidin-4-yl)oxy)benzamide]
fold induction at 1 µM (KAI1 promoter): 0.99
In vivo relative invation [1]: 1.059

C=CC(=O)N1CCC(Oc2ccccc2C(=O)NCC(=O)c2ccccc2)CC1 [Example 160, 2-((1-acryloylpiperidin-4-yl)oxy)-N-(2-oxo-2-phenylethyl)benz amide]
fold induction at 1 µM (KAI1 promoter): 1.05
In vivo relative invation [1]: 1.067

Cc1ccccc1C(=O)N1CCC(Oc2ccccc2C(=O)NCC(=O)c2ccccc2)CC1 [Example 161, 2-((1-(2-methylbenzoyl)piperidin-4-yl)oxy)-N-(2-oxo-2-phenylethyl)benzamide]
fold induction at 1 µM (KAI1 promoter): 0.95
In vivo relative invation [1]: 1.121

COc1ccccc1C(=O)N1CCC(Oc2ccccc2C(=O)NCC(=O)c2ccccc2)CC1 [Example 162, 2-((1-(2-methoxybenzoyl)piperidin-4-yl)oxy)-N-(2-oxo-2-phenylethyl)benzamide]
fold induction at 1 µM (KAI1 promoter): 0.99
In vivo relative invation [1]: 1.043

Cc1cccc(C(=O)N2CCC(Oc3ccccc3C(=O)NCC(=O)c3ccccc3)CC2)c1 [Example 163, 2-((1-(3-methylbenzoyl)piperidin-4-yl)oxy)-N-(2-oxo-2-phenylethyl)benzamide]
fold induction at 1 µM (KAI1 promoter): 1.1
In vivo relative invation [1]: 1.163

CCC(=O)N1CCC(Oc2ccccc2C(=O)NCC(=O)c2ccccc2)CC1 [Example 164, N-(2-oxo-2-phenylethyl)-2-((1-propionylpiperidin-4-yl)oxy)benzamide]
fold induction at 1 µM (KAI1 promoter): 0.98
In vivo relative invation [1]: 1.088

O=C(CNC(=O)c1ccccc1OC1CCN(C(=O)C2CCCCC2)CC1)c1ccccc1 [Example 165, 2-((1-(cyclohexanecarbonyl)piperidin-4-yl)oxy)-N-(2-oxo-2-phenylethyl)benzamide]
fold induction at 1 µM (KAI1 promoter): 1.07
In vivo relative invation [1]: 1.133

O=C(CNC(=O)c1ccccc1OC1CCN(C(=O)C2CC2)CC1)c1ccccc1 [Example 166, 2-((1-(cyclopropanecarbonyl)piperidin-4-yl)oxy)-N-(2-oxo-2-phenylethyl)benzamide]
fold induction at 1 µM (KAI1 promoter): 1.01
In vivo relative invation [1]: 1.094

O=C(CNC(=O)c1ccccc1OC1CCN(C(=O)C2CCC2)CC1)c1ccccc1 [Example 167, 2-((1-(cyclobutanecarbonyl)piperidin-4-yl)oxy)-N-(2-oxo-2-phenylethyl)benzamide]
fold induction at 1 µM (KAI1 promoter): 1.04
In vivo relative invation [1]: 1.159

O=C(CNC(=O)c1ccccc1OC1CCN(C(=O)c2cccs2)CC1)c1ccccc1 [Example 168, N-(2-oxo-2-phenylethyl)-2-((1-(thiophene-2-carbonyl)piperidin-4-yl)oxy)benzamide]
fold induction at 1 µM (KAI1 promoter): 1.05
In vivo relative invation [1]: 1.199

COCc1ccccc1C(=O)N1CCC(Oc2ccccc2C(=O)NCC(=O)c2ccccc2)CC1 [Example 169, 2-((1-(2-(methoxymethyl)benzoyl)piperidin-4-yl)oxy)-N-(2-oxo-2-phenylethyl)benzamide]
fold induction at 1 µM (KAI1 promoter): 0.99
In vivo relative invation [1]: 1.186

CC(C)(C)CC(=O)N1CCC(Oc2ccccc2C(=O)NCC(=O)c2ccccc2)CC1 [Example 170, 2-((1-(3,3-dimethylbutanoyl)piperidin-4-yl)oxy)-N-(2-oxo-2-phenylethyl)benzamide]
fold induction at 1 µM (KAI1 promoter): 1.03
In vivo relative invation [1]: 1.244

O=C(CNC(=O)c1ccccc1OC1CCN(C(=O)N2CCOCC2)CC1)c1ccccc1 [Example 171, 2-((1-(morpholine-4-carbonyl)piperidin-4-yl)oxy)-N-(2-oxo-2-phenylethyl)benzamide]
fold induction at 1 µM (KAI1 promoter): 1.07
In vivo relative invation [1]: 1.191

CCCCC(=O)N1CCC(Oc2ccccc2C(=O)NCC(=O)c2ccccc2)CC1 [Example 172, N-(2-oxo-2-phenylethyl)-2-((1-pentanoylpiperidin-4-yl)oxy)benzamide]
fold induction at 1 µM (KAI1 promoter): 0.93
In vivo relative invation [1]: 1.16

COc1ccc(C(=O)N2CCC(Oc3ccccc3C(=O)NCC(=O)c3ccccc3)CC2)cc1 [Example 173, 2-((1-(4-methoxybenzoyl)piperidin-4-yl)oxy)-N-(2-oxo-2-phenylethyl)benzamide]
fold induction at 1 µM (KAI1 promoter): 1.07
In vivo relative invation [1]: 1.121

O=C(CNC(=O)c1ccccc1OC1CCN(S(=O)(=O)c2cccc([S](=O)=O)c2)CC1)c1ccccc1 [Example 175, 2-((1-((3-(dioxo-15-sulfanyl)phenyl)sulfonyl)piperidin-4-yl)oxy)-N-(2-oxo-2-phenylethyl)benzamide]
Relative KAI promoter activity (KAI1 promoter): 0.97
In vivo relative invation [1]: 1.149

CC(=O)Oc1ccccc1C(=O)N1CCC(Oc2ccccc2C(=O)NCC(=O)c2ccccc2)CC1 [Example 176, 2-(4-(2-((2-oxo-2-phenylethyl)carbamoyl)phenoxy)piperidine-1-carbonyl)phenylacetate]
fold induction at 1 µM (KAI1 promoter): 1.08
In vivo relative invation [1]: 1.26

O=C(CNC(=O)c1ccccc1OC1CCN(C(=O)c2ccc(F)cc2F)CC1)c1ccccc1 [Example 177, 2-((1-(2,4-difluorobenzoyl)piperidin-4-yl)oxy)-N-(2-oxo-2-phenylethyl)benzamide]
fold induction at 1 µM (KAI1 promoter): 0.95
In vivo relative invation [1]: 1.159

COCC(=O)N1CCC(Oc2ccccc2C(=O)NCC(=O)c2ccccc2)CC1 [Example 178, 2-((1-(2-methoxyacetyl)piperidin-4-yl)oxy)-N-(2-oxo-2-phenylethyl)benzamide]
fold induction at 1 µM (KAI1 promoter): 0.91
In vivo relative invation [1]: 1.228

CC(C)(C)C(=O)N1CCC(Oc2ccccc2C(=O)NCC(=O)c2ccccc2)CC1 [Example 179, N-(2-oxo-2-phenylethyl)-2-((1-pivaloylpiperidin-4-yl)oxy)benzamide]
fold induction at 1 µM (KAI1 promoter): 0.97
In vivo relative invation [1]: 1.081

CN(C)C(=O)N1CCC(Oc2ccccc2C(=O)NCC(=O)c2ccccc2)CC1 [Example 180, N,N-dimethyl-4-(2-((2-oxo-2-phenylethyl)carbamoyl)phenoxy) piperidine-1-carboxamide]
fold induction at 1 µM (KAI1 promoter): 1.09
In vivo relative invation [1]: 1.253

O=C(CNC(=O)c1ccccc1OC1CCN(C(=O)c2ccc(Br)cc2)CC1)c1ccccc1 [Example 181, 2-((1-(4-bromobenzoyl)piperidin-4-yl)oxy)-N-(2-oxo-2-phenylethyl)benzamide]
fold induction at 1 µM (KAI1 promoter): 1.06
In vivo relative invation [1]: 1.194

CC(=O)N1CCC(Oc2ccccc2C(=O)NCC(=O)c2ccccc2)CC1 [Example 182, 2-((1-acetylpiperidin-4-yl)oxy)-N-(2-oxo-2-phenylethyl)benzamide]
fold induction at 1 µM (KAI1 promoter): 0.93
In vivo relative invation [1]: 1.095

CS(=O)(=O)N1CCC(Oc2ccccc2C(=O)NCC(=O)c2ccccc2)CC1 [Example 183, 2-((1-(methylsulfonyl)piperidin-4-yl)oxy)-N-(2-oxo-2-phenylethyl)benzamide]
fold induction at 1 µM (KAI1 promoter): 0.96
In vivo relative invation [1]: 1.194

O=C(CNC(=O)c1ccccc1OC1CCN(S(=O)(=O)c2ccc(F)cc2)CC1)c1ccccc1 [Example 184, 2-((1-((4-fluorophenyl)sulfonyl)piperidin-4-yl)oxy)-N-(2-oxo-2-phenylethyl)benzamide]
fold induction at 1 µM (KAI1 promoter): 0.98
In vivo relative invation [1]: 1.114

Cc1ccc(S(=O)(=O)N2CCC(Oc3ccccc3C(=O)NCC(=O)c3ccccc3)CC2)cc1 [Example 185, N-(2-oxo-2-phenylethyl)-2-((1-tosylpiperidin-4-yl)oxy)benzamide]
fold induction at 1 µM (KAI1 promoter): 1.12
In vivo relative invation [1]: 1.114

O=C(CNC(=O)c1ccccc1OC1CCN(S(=O)(=O)c2ccc(Cl)cc2)CC1)c1ccccc1 [Example 186, 2-((1-((4-chlorophenyl)sulfonyl)piperidin-4-yl)oxy)-N-(2-oxo-2-phenylethyl)benzamide]
fold induction at 1 µM (KAI1 promoter): 1.06
In vivo relative invation [1]: 1.145

O=C(CNC(=O)c1ccccc1OC1CCN(S(=O)(=O)c2ccccc2)CC1)c1ccccc1 [Example 187, N-(2-oxo-2-phenylethyl)-2-((1-(phenylsulfonyl)piperidin-4-yl)oxy)benzamide]
fold induction at 1 µM (KAI1 promoter): 1.03
In vivo relative invation [1]: 1.235

O=C(CNC(=O)c1ccccc1OC1CCN(S(=O)(=O)Cc2ccccc2)CC1)c1ccccc1 [Example 188, 2-((1-(benzylsulfonyl)piperidin-4-yl)oxy)-N-(2-oxo-2-phenylethyl)benzamide]
fold induction at 1 µM (KAI1 promoter): 0.92
In vivo relative invation [1]: 1.123

COc1ccc(S(=O)(=O)N2CCC(Oc3ccccc3C(=O)NCC(=O)c3ccccc3)CC2)cc1 [Example 189, 2-((1-((4-methoxyphenyl)sulfonyl)piperidin-4-yl)oxy)-N-(2-oxo-2-phenylethyl)benzamide]
fold induction at 1 µM (KAI1 promoter): 0.9
In vivo relative invation [1]: 1.185

O=C(CNC(=O)c1ccccc1OC1CCN(C(=O)c2cc(C(F)(F)F)cc(C(F)(F)F)c2)CC1)c1ccccc1 [Example 190, 2-((1-(3,5-bis(trifluoromethyl)benzoyl)piperidin-4-yl)oxy)-N-(2-oxo-2-phenylethyl)benzamide]
fold induction at 1 µM (KAI1 promoter): 0.83
In vivo relative invation [1]: 1.203

O=C(CNC(=O)c1ccccc1OC1CCN(C(=O)c2ccccc2C(F)(F)F)CC1)c1ccccc1 [Example 191, N-(2-oxo-2-phenylethyl)-2-((1-(2-(trifluoromethyl)benzoyl)piperidin-4-yl)oxy)benzamide]
fold induction at 1 µM (KAI1 promoter): 0.84
In vivo relative invation [1]: 1.106

O=C(CNC(=O)c1ccccc1OC1CCN(C(=O)c2cccc(C(F)(F)F)c2)CC1)c1ccccc1 [Example 192, N-(2-oxo-2-phenylethyl)-2-((1-(3-(trifluoromethyl)benzoyl)piperidin-4-yl)oxy)benzamide]
fold induction at 1 µM (KAI1 promoter): 0.92
In vivo relative invation [1]: 1.25

Reference: patent US20230150924A1, “NOVEL COMPOUND HAVING CANCER METASTASIS INHIBITORY ACTIVITY, PREPARATION METHOD THEREFOR, AND PHARMACEUTICAL COMPOSITION FOR INHIBITING CANCER METASTASIS AND INVASION OR TREATING COLORECTAL CANCER, COMPRISING COMPOUND” (CELLGENTEK CO., LTD., priority 2019, published 2023)
